From patent US20260125356A1, “TREATMENT OF LEISHMANIASIS” (THE UNIVERSITY OF DURHAM, priority 2022, published 2026) come the findings set out here.

In assay [1] the test system is L. major promastigotes. The assay can be described thus: L. major promastigote dose response assay (alamarBlue/resazurin). Type of assay: cell-based. The note with it: for EC50: 44 hrs + 4 hrs alamarBlue/resazurin, 26° C. The protocol:
Using a standard alamarBlue™ assay, activity and selectivity were assessed using L. major promastigotes and HepG2 cells, respectively.
All parasite and human cell cultures were grown and manipulated following biosafety level 2 instructions under sterile conditions. L. major FV1, L. amazonensis (MHOM/Br/75/JOSEFA), L. donovani BOB (derived from MHOM/SD/62/1S-CL2D), T. brucei (90-13, 427 strain) and T. cruzi (Dm28c) were used throughout.
All steps were carried out under sterile conditions. Frozen stocks of the relevant Leishmania promastigote species were thawed rapidly and added to Schneider's media. Promastigotes were grown at 26° C. in Nunc EasYFlask 25 cm^2 Nunclon Delta Surface (ThermoScientific) and frozen stocks were prepared on low passage cultures (p2-4) by pelleting the cells by centrifugation and resuspending in Schneider's media with 10% DMSO. The cultures were aliquoted into cryovials (Starlab) and cooled slowly to −150° C. for long term storage.
All steps were carried out under sterile conditions. […] Cycloheximide or amphotericin B were used as positive controls and 2% DMSO was used as a negative control. alamarBlue® (ThermoFisher scientific) or resazurin solution was added to each well and incubated for a further 4 hrs at 26° C. Cell-viability was determined using a BioTek™ FLx800 microplate reader with Gen5® 1.08 data analysis software (BioTek) by monitoring fluorescence emission (λex 560/λem 590 nm). Dose response curves were fitted using sigmoidal regression analysis (GraphPad Prism 8 software) and used to calculate EC50 values.

Assay [2] deals with L. amazonensis promastigotes. Put plainly: L. amazonensis promastigote dose response assay (alamarBlue/resazurin). Type of assay: cell-based. To be noted: 44 hrs + 4 hrs alamarBlue/resazurin, 26° C., read-out: EC50 (L. amaz)/μM. A general note: Resazurin is reduced to fluorescent resorufin, in cell work by metabolically active cells.

Where two headings read alike, the source gives them in different places.

“5′-amino-N-[3-(methylcarbamoyl)thiophen-2′-yl]thiophene-2-carboxamide [Compound 8]”: in assay [1], the EC50 was greater than 100 µM.
Turning to “5′-bromo-N-[3-(methylcarbamoyl)thiophen-2-yl]thiophene-2′-carboxamide [Compound 7]”, the EC50 in assay [1] and in assay [2] was greater than 100 µM in each case.
As for `O=C(N[C@H]1CCC[C@H]1C(=O)O)c1ccc([N+](=O)[O-])s1` (racemic) [Compound 23, ±syn 2-(5′-nitrothiophene-2′-amido)cyclopentane-1-carboxylic acid], the EC50 in assay [1] was greater than 100 µM; in assay [2], 52 µM.
The like results for `O=C(NC1CCCC1C(=O)O)c1ccc([N+](=O)[O-])s1` (racemic) [Compound 24, ±anti 2-(5′-nitrothiophene-2′-amido)cyclopentane-1-carboxylic acid] were, in that order, greater than 100 µM and greater than 100 µM.
`CNC(=O)c1ccsc1NC(=O)c1cccs1` [Compound 6, N-methyl-2-(thiophene-2′-amido)thiophene-3-carboxamide]: the EC50 in assay [1] (Leishmania major, 48 h) was greater than 100 µM; in assay [2] (Leishmania amazonensis, 48 h), greater than 100 µM.
As for `CNC(=O)c1ccsc1NC(=O)c1cnc(Cl)s1` [Compound 9, N-[3-(methylcarbamoyl)thiophen-2-yl]-2′-chloro-1′,3′-thiazole-5′-carboxamide], the EC50 in assay [1] (Leishmania major, 48 h) worked out at 33 ± 10 µM.
As to `CNC(=O)c1ccsc1NC(=O)c1ccccc1` [Compound 10, 2-benzamido-N-methylthiophene-3-carboxamide], the EC50 turned out to be 75 ± 5 µM in assay [1] (Leishmania major, 48 h) and 55 ± 5 µM in assay [2] (Leishmania amazonensis, 48 h).
For `CNC(=O)c1ccsc1NC(=O)c1nccs1` [Compound 11, N-[3-(methylcarbamoyl)thiophen-2-yl]-1′,3′-thiazole-2′-carboxamide] the same measures were 78 ± 2 µM and greater than 100 µM.
As for `CNC(=O)c1ccsc1NC(=O)c1cncs1` [Compound 12, N-[3-(methylcarbamoyl)thiophen-2-yl]-1′,3′-thiazole-5′-carboxamide], the EC50 in assay [1] (Leishmania major, 48 h) is 88 ± 6 µM; in assay [2] (Leishmania amazonensis, 48 h), 53 ± 3 µM.
The like results for `CNC(=O)c1ccsc1NC(=O)c1cscn1` [Compound 13, N-[3-(methylcarbamoyl)thiophen-2-yl]-1′,3′-thiazole-4′-carboxamide] were, in that order, greater than 100 µM and 93 ± 7 µM.
For `CNC(=O)c1ccsc1NC(=O)c1ccncc1` [Compound 14, N-[3-(methylcarbamoyl)thiophen-2-yl]pyridine-4′-carboxamide] the same measures were 82 ± 1 µM and 45 ± 5 µM.
The like results for `CNC(=O)c1ccsc1NC(=O)c1cccnc1` [Compound 15, N-[3-(methylcarbamoyl)thiophen-2-yl]pyridine-3′-carboxamide] were, in that order, 82 ± 7 µM and 59 ± 2 µM.
`CNC(=O)c1ccsc1NC(=O)c1ccc2nonc2c1` [Compound 16, N-[3-(methylcarbamoyl)thiophen-2-yl]-2,1,3-benzoxadiazole-5′-carboxamide]: the EC50 is greater than 100 µM in assay [1] (Leishmania major, 48 h) and greater than 100 µM in assay [2] (Leishmania amazonensis, 48 h).
Consider `CNC(=O)c1ccsc1NC(=O)c1cccc([N+](=O)[O-])c1` [Compound 18, N-methyl-2-(3′-nitrobenzamido)thiophene-3-carboxamide], for which the EC50 was greater than 100 µM in assay [1] (Leishmania major, 48 h) and greater than 100 µM in assay [2] (Leishmania amazonensis, 48 h).
As for `CNC(=O)c1ccsc1NC(=O)c1ccc([N+](=O)[O-])cc1` [Compound 19, N-methyl 2-(4′-nitrobenzamido)thiophene-3-carboxamide], the EC50 in assay [1] (Leishmania major, 48 h) was greater than 100 µM; in assay [2] (Leishmania amazonensis, 48 h), greater than 100 µM.
Regarding `CNC(=O)c1ccsc1NC(=O)c1ccc([N+](=O)[O-])cc1C(F)(F)F` [Compound 20, N-methyl-2-[4′-nitro-2′-(trifluoromethyl)benzamido]thiophene-3-carboxamide], the EC50 amounted to 16.6 ± 0.2 µM in assay [1] (Leishmania major, 48 h) and 38.7 µM in assay [2] (Leishmania amazonensis, 48 h). In addition, in assay [1] (Table 2), the “improvement in antileishmanial activity compared to 19” value is greater than 3 fold.
For `CCOC(=O)C1CCCC1NC(=O)c1ccc([N+](=O)[O-])s1` (stereo not drawn) [Compound 21, syn-ethyl-2-(5′-nitrothiophene-2′-amido)cyclopentane-1-carboxylate], the figures for the EC50 in assay [1] and in assay [2] were 22 µM and 9.7 µM, respectively.
The like results for `CCOC(=O)C1CCCC1NC(=O)c1ccc([N+](=O)[O-])s1` (stereo not drawn) [Compound 22, anti-ethyl-2-(5′-nitrothiophene-2′-amido)cyclopentane-1-carboxylate] were, in that order, 10 µM and 13 µM.
In the case of `CCOC(=O)C1=C(NC(=O)c2ccc([N+](=O)[O-])s2)CCC1` [Compound 26, Ethyl 2-(5′-nitrothiophene-2′-amido)cyclopent-1-ene-1-carboxylate], the EC50 in assay [1] (Leishmania major, 48 h) worked out at 0.46 µM; in assay [2] (Leishmania amazonensis, 48 h), 0.72 µM.
`O=C(Nc1ccccc1C(=O)O)c1ccc([N+](=O)[O-])s1` [Compound 29, 2-(5′-nitrothiophene-2′-amido)benzoic acid]: the EC50 in assay [1] (Leishmania major, 48 h) stood at 46 µM.
On to `COc1ccccc1NC(=O)c1ccc([N+](=O)[O-])s1` [Compound 30, N-(2-methoxyphenyl)-5′-nitrothiophene-2′-carboxamide], for which the EC50 in assay [1] is 6.3 µM.
On to `O=C(Nc1ccccc1C(F)(F)F)c1ccc([N+](=O)[O-])s1` [Compound 31, 5′-nitro-N-[2-(trifluoromethyl)phenyl]thiophene-2′-carboxamide], for which the EC50 in assay [1] stood at 8.3 µM; in assay [2], 4.24 µM.
With `CC(=O)c1ccccc1NC(=O)c1ccc([N+](=O)[O-])s1` [Compound 32, N-(2-acetylphenyl)-5′-nitrothiophene-2′-carboxamide], the EC50 in assay [1] was 16 µM.
For `CNC(=O)c1cccc(Nc2ccc([N+](=O)[O-])s2)c1` [Compound 34, N-methyl-3-[(5′-nitrothiophen-2′-yl)amino]benzamide], the results for the EC50 in assay [1] and in assay [2] were 3.5 µM and 0.26 µM, respectively.
Consider `COc1cccc(NC(=O)c2ccc([N+](=O)[O-])s2)c1` [Compound 35, N-(3-methoxyphenyl)-5′-nitrothiophene-2′-carboxamide], for which the EC50 in assay [1] stood at 3.9 µM.
Same read-out and setting: the result for `COc1ccc(NC(=O)c2ccc([N+](=O)[O-])s2)cc1` [Compound 36, N-(4-methoxyphenyl)-5′-nitrothiophene-2′-carboxamide] reads 3.45 µM.
Turning to `O=C(Nc1cccc(C(F)(F)F)c1)c1ccc([N+](=O)[O-])s1` [Compound 37, 5′-nitro-N-[3-(trifluoromethyl)phenyl]thiophene-2′-carboxamide], the EC50 was found to be 3.5 µM in assay [1] and 2.22 µM in assay [2].
As for `CC(C)NC(=O)c1ccccc1NC(=O)c1ccc([N+](=O)[O-])s1` [Compound 38, 5′-nitro-N-{[(propan-2-yl)carbamoyl]-2-phenyl}thiophene-2′-carboxamide], the EC50 in assay [1] is 4 µM.
On the same count and under the same terms, with `CCCCCCCCCCCCCNC(=O)c1ccccc1NC(=O)c1ccc([N+](=O)[O-])s1` [Compound 39, 5′-nitro-N-[2-(tridecylcarbamoyl)phenyl]thiophene-2′-carboxamide] the figure was greater than 100 µM; with `CNC(=O)c1c(C)cccc1NC(=O)c1ccc([N+](=O)[O-])s1` [Compound 40, N-[3-methyl-2-(methylcarbamoyl)phenyl]-5′-nitrothiophene-2′-carboxamide], 8.5 µM; with `CNC(=O)c1cc(OC)ccc1NC(=O)c1ccc([N+](=O)[O-])s1` [Compound 41, N-[4-methoxy-2-(methylcarbamoyl)phenyl]-5′-nitrothiophene-2′-carboxamide], 16 µM.
With `CNC(=O)c1cc(C)ccc1NC(=O)c1ccc([N+](=O)[O-])s1` [Compound 42, N-[4-methyl-2-(methylcarbamoyl)phenyl]-5′-nitrothiophene-2′-carboxamide], the EC50 in assay [1] amounted to 2.7 µM.
For the compound `CN(C)C(=O)c1ccccc1NC(=O)c1ccc([N+](=O)[O-])s1` [Compound 56, N-[2-(dimethylcarbamoyl)phenyl]-5′-nitrothiophene-2′-carboxamide], the EC50 in assay [1] (Leishmania major, 48 h) was found to be 17 µM; in assay [2] (Leishmania amazonensis, 48 h) it was 6.3 µM.
On to `O=c1oc(-c2ccc([N+](=O)[O-])s2)nc2ccccc12` [Compound 57, 2-(5′-nitrothiophen-2′-yl)-4H-3,1-benzoxazin-4-one], for which, in assay [1] (Leishmania major, 48 h), the EC50 is 38 µM.
